pIC50: −log10 of the molar value.
Legend:
HEK293 = assay: Cytotoxicity against HEK293 cells assessed as reduction in cell viability at 10 uM by CCK8 method relative to control; assay type: toxicity, cell-based; conditions: human, hek293, 10 µM
[1] = Cmax in male ICR mouse at 1 mg/kg, iv administered as single dose measured upto 24 hrs by HPLC analysis; assay type: ADME, organism-based; conditions: in vivo
[2] = Tmax in male ICR mouse at 1 mg/kg, iv administered as single dose measured upto 24 hrs by HPLC analysis; assay type: ADME, organism-based; conditions: in vivo
[3] = Half life in male ICR mouse at 1 mg/kg, iv administered as single dose measured upto 24 hrs by HPLC analysis; assay type: ADME, organism-based; conditions: in vivo
[4] = AUC (0 to t) in male ICR mouse at 1 mg/kg, iv administered as single dose measured upto 24 hrs by HPLC analysis; assay type: ADME, organism-based; conditions: in vivo
[5] = Clearance in male ICR mouse at 1 mg/kg, iv administered as single dose measured upto 24 hrs by HPLC analysis; assay type: ADME, organism-based; conditions: in vivo
[6] = MRT (0 to t) in male ICR mouse at 1 mg/kg, iv administered as single dose measured upto 24 hrs by HPLC analysis; assay type: ADME, organism-based; conditions: in vivo
[7] = Volume of distribution at steady state in male ICR mouse at 1 mg/kg, iv administered as single dose measured upto 24 hrs by HPLC analysis; assay type: ADME, organism-based; conditions: in vivo, read-out: Vdss
[8] = Cmax in male ICR mouse at 10 mg/kg, po administered as single dose measured upto 24 hrs by HPLC analysis; assay type: ADME, organism-based; conditions: in vivo
[9] = Tmax in male ICR mouse at 10 mg/kg, po administered as single dose measured upto 24 hrs by HPLC analysis; assay type: ADME, organism-based; conditions: in vivo
[10] = Half life in male ICR mouse at 10 mg/kg, po administered as single dose measured upto 24 hrs by HPLC analysis; assay type: ADME, organism-based; conditions: in vivo
[11] = AUC (0 to t) in male ICR mouse at 10 mg/kg, po administered as single dose measured upto 24 hrs by HPLC analysis; assay type: ADME, organism-based; conditions: in vivo
[12] = MRT (0 to t) in male ICR mouse at 10 mg/kg, po administered as single dose measured upto 24 hrs by HPLC analysis; assay type: ADME, organism-based; conditions: in vivo
[13] = Oral bioavailability in male ICR mouse at 10 mg/kg administered as single dose measured upto 24 hrs by HPLC analysis; assay type: ADME, organism-based; conditions: in vivo
[14] = Drug concentration in male ICR mouse brain at 1 mg/kg, iv measured after 0.5 hrs by LC-MS/MS analysis; assay type: ADME, organism-based; conditions: read-out: Ct
[15] = Drug concentration in male ICR mouse plasma at 1 mg/kg, iv measured after 0.5 hrs by LC-MS/MS analysis; assay type: ADME, organism-based
[16] = Drug concentration in male ICR mouse brain at 1 mg/kg, iv measured after 2 hrs by LC-MS/MS analysis; assay type: ADME, organism-based; conditions: read-out: Ct
[17] = Drug concentration in male ICR mouse plasma at 1 mg/kg, iv measured after 2 hrs by LC-MS/MS analysis; assay type: ADME, organism-based
[18] = Drug concentration in male ICR mouse brain at 10 mg/kg, po measured after 0.5 hrs by LC-MS/MS analysis; assay type: ADME, organism-based; conditions: read-out: Ct
[19] = Drug concentration in male ICR mouse plasma at 10 mg/kg, po measured after 0.5 hrs by LC-MS/MS analysis; assay type: ADME, organism-based
[20] = Drug concentration in male ICR mouse brain at 10 mg/kg, po measured after 2 hrs by LC-MS/MS analysis; assay type: ADME, organism-based; conditions: read-out: Ct
[21] = Drug concentration in male ICR mouse plasma at 10 mg/kg, po measured after 2 hrs by LC-MS/MS analysis; assay type: ADME, organism-based
[22] = molecular target: Voltage-gated inwardly rectifying potassium channel KCNH2 (Homo sapiens, UniProt Q12809); assay: Inhibition of human ERG expressed in Xenopus laevis oocytes by two-electrode voltage clamp method; assay type: toxicity, cell-based, Oocyte
Sequence of Voltage-gated inwardly rectifying potassium channel KCNH2 (Q12809 whole entry): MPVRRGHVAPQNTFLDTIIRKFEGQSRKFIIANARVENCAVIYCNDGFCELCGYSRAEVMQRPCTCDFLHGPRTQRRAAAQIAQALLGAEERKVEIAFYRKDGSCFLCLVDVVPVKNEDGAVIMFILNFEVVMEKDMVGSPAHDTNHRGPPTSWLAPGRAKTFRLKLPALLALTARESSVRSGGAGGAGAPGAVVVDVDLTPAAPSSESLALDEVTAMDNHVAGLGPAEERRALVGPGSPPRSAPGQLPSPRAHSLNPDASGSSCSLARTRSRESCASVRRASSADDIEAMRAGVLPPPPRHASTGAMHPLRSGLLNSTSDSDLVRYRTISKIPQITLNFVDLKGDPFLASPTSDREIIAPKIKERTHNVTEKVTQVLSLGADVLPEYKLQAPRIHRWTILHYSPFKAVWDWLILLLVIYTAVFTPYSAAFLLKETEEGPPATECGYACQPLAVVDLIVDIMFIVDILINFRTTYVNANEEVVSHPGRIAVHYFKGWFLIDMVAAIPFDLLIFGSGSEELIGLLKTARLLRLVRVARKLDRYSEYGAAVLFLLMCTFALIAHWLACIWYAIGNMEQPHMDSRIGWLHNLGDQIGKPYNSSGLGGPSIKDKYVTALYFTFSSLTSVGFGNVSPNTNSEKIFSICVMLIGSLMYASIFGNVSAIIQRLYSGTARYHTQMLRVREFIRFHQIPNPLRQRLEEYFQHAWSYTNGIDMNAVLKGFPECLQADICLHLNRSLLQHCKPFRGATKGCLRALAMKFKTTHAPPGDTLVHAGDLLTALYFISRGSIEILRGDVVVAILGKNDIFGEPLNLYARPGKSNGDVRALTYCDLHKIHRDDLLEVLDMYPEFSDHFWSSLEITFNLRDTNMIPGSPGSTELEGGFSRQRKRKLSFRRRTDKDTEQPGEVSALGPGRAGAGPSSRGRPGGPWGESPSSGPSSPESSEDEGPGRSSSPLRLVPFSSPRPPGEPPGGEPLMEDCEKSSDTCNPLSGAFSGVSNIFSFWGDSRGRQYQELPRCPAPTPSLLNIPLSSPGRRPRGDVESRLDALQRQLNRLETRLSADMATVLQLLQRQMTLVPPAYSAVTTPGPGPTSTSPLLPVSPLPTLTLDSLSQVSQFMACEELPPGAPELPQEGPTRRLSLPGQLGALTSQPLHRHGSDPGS

CN1CCC(NCc2c(OCc3ccc(F)cc3)ccc3ccccc23)CC1
Activity (HEK293): 53.17%

CN1CCC(NCc2c(OCc3ccc(Br)cc3)ccc3ccccc23)CC1
Cmax [1]: 25.4 ng/mL
Tmax [2]: 4.8 min
half-life [3]: 3.57 h
AUC(0-t) at 24 h [4]: 62 ng·h/mL
clearance [5]: 249 mL/min/kg
MRT last at 24 h [6]: 7.21 h
Vd [7]: 132 L/kg
Cmax [8]: 43.8 ng/mL
Tmax [9]: 0.17 h
half-life [10]: 7.23 h
AUC(0-t) at 24 h [11]: 110 ng·h/mL
MRT last at 24 h [12]: 5.37 h
bioavailability [13]: 17.8%
concentration at 0.5 h [14]: 960 ng/mL
concentration at 0.5 h [15]: 12.8 ng/mL
concentration at 2 h [16]: 702 ng/mL
concentration at 2 h [17]: 4.16 ng/mL
concentration at 0.5 h [18]: 102 ng/mL
concentration at 0.5 h [19]: 32.4 ng/mL
concentration at 2 h [20]: 158 ng/mL
concentration at 2 h [21]: 9.16 ng/mL
pIC50 [22]: 4.83
